# ChEMBL document CHEMBL3856212, “Synthesis, anti-proliferative and genotoxicity studies of 6-chloro-5-(2-substituted-ethyl)-1,3-dihydro-2H-indol-2-ones and 6-chloro-5-(2-chloroethyl)-3-(alkyl/ary-2-ylidene)indolin-2-ones” (Eur J Med Chem, 2016)
# How the values were obtained:
# [1] = Cytotoxicity against human T47D cells assessed as growth inhibition after 48 hrs by SRB assay; assay type: functional
# [2] = Cytotoxicity against human SKOV3 cells assessed as growth inhibition after 48 hrs by SRB assay; assay type: functional; details: SK-OV-3, 48 h
# [3] = Cytotoxicity against human SNB75 cells assessed as growth inhibition after 48 hrs by SRB assay; assay type: functional; details: SNB-75, 48 h
# [4] = Cytotoxicity against human HCC2998 cells assessed as growth inhibition after 48 hrs by SRB assay; assay type: functional; details: HCC 2998, 48 h
# [5] = Cytotoxicity against human RXF393 cells assessed as growth inhibition after 48 hrs by SRB assay; assay type: functional; details: RXF 393, 48 h
# [6] = Cytotoxicity against human KM12 cells assessed as assessed as growth inhibition at 10^-5 M after 48 hrs by SRB assay relative to control; assay type: functional; details: KM12, 48 h, read-out: GI
# [7] = Cytotoxicity against human SN12C cells assessed as growth inhibition after 48 hrs by SRB assay; assay type: functional
# [8] = Cytotoxicity against human SF295 cells assessed as assessed as growth inhibition at 10^-5 M after 48 hrs by SRB assay relative to control; assay type: functional; details: SF-295, 48 h, read-out: GI
# [9] = Cytotoxicity against human HCT15 cells assessed as assessed as growth inhibition at 10^-5 M after 48 hrs by SRB assay relative to control; assay type: functional; details: HCT-15, 48 h, read-out: GI
# [10] = Cytotoxicity against human IGROV1 cells assessed as assessed as growth inhibition at 10^-5 M after 48 hrs by SRB assay relative to control; assay type: functional; details: IGROV-1, 48 h, read-out: GI
# [11] = Cytotoxicity against human NCI-H226 cells assessed as growth inhibition after 48 hrs by SRB assay; assay type: functional; details: NCI-H226, 48 h
# [12] = Cytotoxicity against human Hs 578T cells assessed as assessed as growth inhibition at 10^-5 M after 48 hrs by SRB assay relative to control; assay type: functional; details: read-out: GI
# [13] = Cytotoxicity against human U251 cells assessed as growth inhibition after 48 hrs by SRB assay; assay type: functional; details: U-251, 48 h
# [14] = species on record: Mus musculus; experiment: Genotoxicity in mouse EAC cells at 250 uM after 24 hrs by micronucleus assay (reference value: 3.5 +/- 0.30%); assay type: toxicity, cell-based; details: ehrlich
# [15] = Cytotoxicity against human HCT116 cells assessed as growth inhibition after 48 hrs by SRB assay; assay type: functional; details: HCT-116, 48 h
# [16] = Cytotoxicity against human NCI-H522 cells assessed as assessed as growth inhibition at 10^-5 M after 48 hrs by SRB assay relative to control; assay type: functional; details: NCI-H522, 48 h, read-out: GI
# [17] = Cytotoxicity against human NCI-H522 cells assessed as growth inhibition after 48 hrs by SRB assay; assay type: functional; details: NCI-H522, 48 h
# [18] = Cytotoxicity against human SK-MEL-5 cells assessed as assessed as growth inhibition at 10^-5 M after 48 hrs by SRB assay relative to control; assay type: functional; details: SK-MEL-5, 48 h, read-out: GI
# [19] = Cytotoxicity against human HCT116 cells assessed as assessed as growth inhibition at 10^-5 M after 48 hrs by SRB assay relative to control; assay type: functional; details: HCT-116, 48 h, read-out: GI
# [20] = Cytotoxicity against human M14 cells assessed as assessed as growth inhibition at 10^-5 M after 48 hrs by SRB assay relative to control; assay type: functional; details: M14, 48 h, read-out: GI
# [21] = Cytotoxicity against human LOXIMVI cells assessed as assessed as growth inhibition at 10^-5 M after 48 hrs by SRB assay relative to control; assay type: functional; details: LOX IMVI, read-out: GI
# [22] = Cytotoxicity against human MDA-MB-435 cells assessed as assessed as growth inhibition at 10^-5 M after 48 hrs by SRB assay relative to control; assay type: functional; details: MDA-MB-435, 48 h, read-out: GI
# [23] = Cytotoxicity against human COLO205 cells assessed as growth inhibition after 48 hrs by SRB assay; assay type: functional; details: COLO 205, 48 h
# [24] = Cytotoxicity against human MCF7 cells assessed as assessed as growth inhibition at 10^-5 M after 48 hrs by SRB assay relative to control; assay type: functional; details: MCF7, 48 h, read-out: GI
# [25] = Cytotoxicity against human SF268 cells assessed as growth inhibition after 48 hrs by SRB assay; assay type: functional; details: SF-268, 48 h
# [26] = Cytotoxicity against human HCC2998 cells assessed as assessed as growth inhibition at 10^-5 M after 48 hrs by SRB assay relative to control; assay type: functional; details: HCC 2998, 48 h, read-out: GI
# [27] = Cytotoxicity against human 786-0 cells assessed as assessed as growth inhibition at 10^-5 M after 48 hrs by SRB assay relative to control; assay type: functional; details: 786-0, 48 h, read-out: GI
# [28] = Cytotoxicity against human HT-29 cells assessed as assessed as growth inhibition at 10^-5 M after 48 hrs by SRB assay relative to control; assay type: functional; details: HT-29, 48 h, read-out: GI
# [29] = Cytotoxicity against human Caki1 cells assessed as assessed as growth inhibition at 10^-5 M after 48 hrs by SRB assay relative to control; assay type: functional; details: CAKI-1, 48 h, read-out: GI
# [30] = Cytotoxicity against human ACHN cells assessed as assessed as growth inhibition at 10^-5 M after 48 hrs by SRB assay relative to control; assay type: functional; details: read-out: GI
# [31] = Cytotoxicity against human EKVX cells assessed as assessed as growth inhibition at 10^-5 M after 48 hrs by SRB assay relative to control; assay type: functional; details: read-out: GI
# [32] = Cytotoxicity against human UO31 cells assessed as assessed as growth inhibition at 10^-5 M after 48 hrs by SRB assay relative to control; assay type: functional; details: UO-31, 48 h, read-out: GI
# [33] = Cytotoxicity against human A549 cells assessed as growth inhibition after 48 hrs by SRB assay; assay type: functional; details: A549, 48 h
# [34] = Cytotoxicity against human SF295 cells assessed as growth inhibition after 48 hrs by SRB assay; assay type: functional; details: SF-295, 48 h
# [35] = read-out: LD50 (the source's name)
compound,measurement,setting,value
O=C1Cc2cc(CCN3CCNCC3)c(Cl)cc2N1,GI50,[1],2910 nM
same,TGI,[1],> 1000 nM
same,CC50,[1]; [35],> 1000 nM
same,GI50,[2],1000 nM
same,TGI,[2],> 1000 nM
same,CC50,[2]; [35],> 1000 nM
same,GI50,[3],1560 nM
same,TGI,[3],7540 nM
same,CC50,[3]; [35],> 1000 nM
same,GI50,[4],4660 nM
same,TGI,[4],> 1000 nM
same,CC50,[4]; [35],> 1000 nM
same,GI50,[5],6890 nM
same,TGI,[5],> 1000 nM
same,CC50,[5]; [35],> 1000 nM
same,inhibition of growth at 10 µM,[6],70.4%
same,GI50,[7],6000 nM
same,TGI,[7],> 1000 nM
same,CC50,[7]; [35],> 1000 nM
same,inhibition of growth at 10 µM,[8],46.4%
same,inhibition of growth at 10 µM,[9],51.2%
same,inhibition of growth at 10 µM,[10],11%
same,GI50,[11],1000 nM
same,TGI,[11],> 1000 nM
same,CC50,[11]; [35],> 1000 nM
same,inhibition of growth at 10 µM,[12],69.9%
same,GI50,[13],7790 nM
same,TGI,[13],> 1000 nM
same,CC50,[13]; [35],> 1000 nM
same,Activity,[14],4.43%
same,GI50,[15],1000 nM
same,TGI,[15],> 1000 nM
same,CC50,[15]; [35],> 1000 nM
same,inhibition of growth at 10 µM,[16],73.6%
same,GI50,[17],4880 nM
same,TGI,[17],> 1000 nM
same,CC50,[17]; [35],> 1000 nM
same,inhibition of growth at 10 µM,[18],65.4%
same,inhibition of growth at 10 µM,[19],34.8%
same,inhibition of growth at 10 µM,[20],75.5%
same,inhibition of growth at 10 µM,[21],21.4%
same,inhibition of growth at 10 µM,[22],82%
same,GI50,[23],1970 nM
same,TGI,[23],> 1000 nM
same,CC50,[23]; [35],> 1000 nM
same,inhibition of growth at 10 µM,[24],74.9%
same,GI50,[25],1270 nM
same,TGI,[25],> 1000 nM
same,CC50,[25]; [35],> 1000 nM
same,inhibition of growth at 10 µM,[26],24.3%
same,inhibition of growth at 10 µM,[27],15.3%
same,inhibition of growth at 10 µM,[28],11.9%
same,inhibition of growth at 10 µM,[29],37.2%
same,inhibition of growth at 10 µM,[30],35.5%
same,inhibition of growth at 10 µM,[31],75.2%
same,inhibition of growth at 10 µM,[32],36.8%
same,GI50,[33],6850 nM
same,TGI,[33],> 1000 nM
same,CC50,[33]; [35],> 1000 nM
same,GI50,[34],4200 nM
same,TGI,[34],> 1000 nM
same,CC50,[34]; [35],> 1000 nM
